Assay results published in US20250041294A1, “Synergistic compositions for use in the treatment of cancer” (Sartar Therapeutics Oy, priority 2021, published 2025).

Key:
Type in all cases: cell-based
[1] = tested on: GIST882, GOT3 and SA4 cell lines; test: High throughput drug sensitivity and resistance test, average over cell lines (BAY2666605 combination); details: for Average DSS (aDSS): BAY2666605 combination, average of GIST882, SA4 and GOT3, aDSS higher than 3.0 = synergy; for synergy in high-throughput screening (in words): with anagrelide (GOT3, SA4) or BAY2666605 (GIST882, GOT3, SA4)
Summary of the method: (§1)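 Compounds were plated in 10-fold dilutions spanning a 10,000-fold range, alone or with anagrelide (100 nM; SA4, GOT3) or BAY2666605 (40 nM; GIST882, SA4, GOT3). Viability was read by CellTiter-Glo after 72 h and normalized to DMSO and benzethonium chloride controls. Responses were expressed as DSS from four-parameter fits, and the single-agent DSS was subtracted from the combination DSS.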

[2] = tested on: GIST882, SA4, and GOT3 cell lines; test: Drug combination testing with concentration matrices, SynergyFinder 2.0 (all three cell lines); details: drug concentration matrices and SynergyFinder 2.0, with or without Anagrelide
Experimental: (§2) Drug combination testing with anagrelide and 12 selected drugs was performed as described above but with selected drugs using drug concentration matrices covering seven different concentrations with 3 replicate sample of each combinations and in two replicate assays. Synergy was assessed using an R package SynergyFinder 2.0 (Ianevski A, et al. 2020). The tool implements synergy scoring with four major reference models: HSA, Loewe, Bliss and ZIP models. The degree of a drug combination effect can be readily visualized as a synergy landscape map over the dose matrix and ZIP synergy score.

GIST882 cell line [3] = test: High throughput drug sensitivity and resistance test (CellTiter-Glo, 72 hours); details: drug combined with BAY2666605 (40 nM) minus drug alone
Summary of the method: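 GIST882 viability read by CellTiter-Glo after 72 h, normalized to 0.01% DMSO and 100 μmol/L benzethonium chloride. Compounds also combined with 40 nM BAY2666605. Four-parameter logistic curves; response as drug sensitivity score, with synergy as combination DSS minus single-agent DSS.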

GOT3 and SA4 cell lines = test: High throughput drug sensitivity and resistance test, average over cell lines (anagrelide combination); details: anagrelide combination, average of SA4 and GOT3; aDSS higher than 3.0 = synergy
Summary of the method: as §1

GOT3 cell line [4] = test: High throughput drug sensitivity and resistance test (CellTiter-Glo, 72 hours); details: GOT3; for GOT3 cell line: DSS(combo (BAY2666605))-DSS(drug): drug combined with BAY2666605 (40 nM) minus drug alone; for GOT3 cell line: DSS(combo (anagrelide))-DSS(drug): drug combined with anagrelide hydrochloride (100 nM) minus drug alone
Summary of the method: as §1

SA4 cell line [5] = test: as above; details: SA4; for SA4 cell line: DSS(combo (BAY2666605))-DSS(drug): drug combined with BAY2666605 (40 nM) minus drug alone; for SA4 cell line: DSS(combo (anagrelide))-DSS(drug): drug combined with anagrelide hydrochloride (100 nM) minus drug alone
Summary of the method: as §1

GOT3 cell line [6] = test: Drug combination testing with concentration matrices, SynergyFinder 2.0; details: combination with anagrelide, seven-concentration matrices
Experimental: as §2, with “Synergy was assessed using an R package SynergyFinder 2.0 (Ianevski A, et al. 2020).” left out

SA4 cell line [7] = test: as above; details: combination with anagrelide, seven-concentration matrices
Experimental: as §2, with “Synergy was assessed using an R package SynergyFinder 2.0 (Ianevski A, et al. 2020).” left out

GIST882 cell line [8] = test: as above; details: combination with anagrelide, seven-concentration matrices
Experimental: as §2, with “Synergy was assessed using an R package SynergyFinder 2.0 (Ianevski A, et al. 2020).” left out

[9] = tested on: GIST882, SA4 and GOT3 cell lines; test: Cell viability assay (96 well, CellTiter-Glo, 72 hours); details: for synergy with DNMDP (in words): FIGS. 7-8; for synergy with Bcl-family inhibitor A-1155463 (in words): FIG. 2, cell line not stated
Experimental: Cell viability assay. Cells were plated on 96 Well White/Clear Tissue Culture Treated Plate (FALCON, 353377) 24 hours prior to medium change with drugs. Viabilities of cells in different treatments were evaluated 72 hours after treatment incubation with CellTiter-Glo® Luminescent Cell Viability Assay (G7572, Promega) following manufacturer's instruction. Reagent and cells stabilized to room temperature. Reagent added 100 μl/well, shaken for 2 minutes at room temperature and incubated for 10 min at room temperature before measuring the luminescence by using Hidex Sence microplate reader (Hidex oy). Growth medium was used to exclude background signal from the results.

[10] = treated together with 3-hydroxy-anagrelide, FIGS. 5 and 6
[11] = treated together with Anagrelide, FIGS. 3 and 4

| SMILES | Average DSS (aDSS) [1] | synergy in high-throughput screening (in words) [1] | efficacy in cell lines (in words) [2] | GIST882 cell line: DSS(combo (BAY2666605))-DSS(drug) (GIST882 cell line [3]) | Average DSS (aDSS) (GOT3 and SA4 cell lines) | GOT3 cell line: DSS(combo (BAY2666605))-DSS(drug) (GOT3 cell line [4]) | GOT3 cell line: DSS(combo (anagrelide))-DSS(drug) (GOT3 cell line [4]) | SA4 cell line: DSS(combo (BAY2666605))-DSS(drug) (SA4 cell line [5]) | SA4 cell line: DSS(combo (anagrelide))-DSS(drug) (SA4 cell line [5]) | Average ZIP synergy score (GOT3 cell line [6]) | Average ZIP synergy score (SA4 cell line [7]) | Average ZIP synergy score (GIST882 cell line [8]) | synergy with DNMDP (in words) [9] | cell viability, combination result (in words) [9, 10] | cell viability, combination result (in words) [9, 11] | synergy with Bcl-family inhibitor A-1155463 (in words) [9] | synergy with Bcl-family inhibitor A-1155463 (in words) ([9]; listed as cilostazol) |
| --- | --- | --- | --- | --- | --- | --- | --- | --- | --- | --- | --- | --- | --- | --- | --- | --- | --- |
| Cc1c(-c2ccc(N3CCc4cccc(C(=O)Nc5nc6ccccc6s5)c4C3)nc2C(=O)O)cnn1CC12CC3CC(CC(C3)C1)C2 [A-1331852] | 10.2 | synergistic | significant efficacy in cell lines only when they were administered with Anagrelide | 15.1 | 9.25 | 2.8 | 3.6 | 12.6 | 14.9 | 11.6 | 11.1 | 9.6 | – | – | – | – | – |
| CC1(C)CCC(c2ccc(Cl)cc2)=C(CN2CCN(c3ccc(C(=O)NS(=O)(=O)c4ccc(N[C@H](CCN5CCOCC5)CSc5ccccc5)c(S(=O)(=O)C(F)(F)F)c4)cc3)CC2)C1 [Navitoclax, navitoclax] | 17.0 | synergistic | significant efficacy in cell lines only when they were administered with Anagrelide | 20.7 | 10 | 1.7 | 2.6 | 28.5 | 17.4 | 2.4 | 8 | 11.7 | showed synergy with DNMDP | verified the result | verified the result | – | – |
| O=C1CCc2cc(OCCCCc3nnnn3C3CCCCC3)ccc2N1 [Cilostazol] | – | – | – | – | – | – | – | – | – | – | – | – | – | – | – | does not show synergy | not however achieved |
| NS(=O)(=O)OC[C@@H]1C[C@@H](n2ccc3c(N[C@H]4CCc5ccccc54)ncnc32)C[C@@H]1O [Pevonedistat, pevonedistat] | 7.5 | synergistic | – | 9.3 | 8.25 | 6.2 | 2.7 | 7 | 13.8 | 12.7 | 7.8 | 4.6 | – | – | – | – | – |
| Cc1nc(Nc2n[nH]c3c2CN(C(=O)N[C@H](CN(C)C)c2ccccc2)C3(C)C)c2sccc2n1 [PF-03758309] | 3.4 | synergistic | – | 0.5 | 11.9 | −3.6 | 3.7 | 13.4 | 20.1 | 8.5 | 16.8 | 11.5 | – | – | – | – | – |
| CO[C@H]1C[C@@H]2CC[C@@H](C)[C@@](O)(O2)C(=O)C(=O)N2CCCC[C@H]2C(=O)O[C@H]([C@H](C)C[C@@H]2CC[C@@H](OC(=O)C(C)(CO)CO)[C@H](OC)C2)CC(=O)[C@H](C)/C=C(\C)[C@@H](O)[C@@H](OC)C(=O)[C@H](C)C[C@H](C)/C=C/C=C/C=C/1C [Temsirolimus, temsirolimus] | 4.6 | synergistic | – | 7.4 | 5.45 | 1.2 | 1.1 | 5.3 | 9.8 | 0.4 | 3.6 | 2.8 | – | – | – | – | – |
| Cn1cc(CNCC2CCN(c3ncc(C(=O)NO)cn3)CC2)c2ccccc21 [Quisinostat, quisinostat] | 11.0 | synergistic | – | 8.7 | 8.85 | 8 | 1.9 | 16.2 | 15.8 | 6.9 | 8.7 | 6.5 | – | – | – | – | – |
| CN(C)CC#Cc1ccc(OCCCc2sc(N3CCc4cccc(C(=O)Nc5nc6ccccc6s5)c4C3)nc2C(=O)O)c(F)c1 [A-1155463] | 8.8 | synergistic | significant efficacy in cell lines only when they were administered with Anagrelide | 23 | 14.85 | 6.9 | 7.5 | −3.6 | 22.2 | 12.7 | 11.1 | 15.5 | showed synergy with DNMDP | verified the result | verified the result | – | – |
